Laboratory results as given in US20130012451A1, “COMPOSITIONS AND METHODS FOR INHIBITING MMP-9-MEDIATED CELL MIGRATION” (The Research Foundation of State University of New York, priority 2009, published 2013).
“Also recorded” adds a separate entry of the source. Read-outs that look alike come from different tables or passages of the source. One block for each substance: values may come before it. Where no end group is shown, it is not given here.

What was measured:
HT1080 cells = assay: Transwell chamber migration assay, HT1080 cells expressing endogenous MMP-9; format: cell-based, human; details: 100 μM peptide, 6 h at 37° C.
Protocol: Human fibrosarcoma HT1080 cells are highly invasive and metastatic. […] Since this cell line produces endogenous MMP-9, the inventors sought to test if the MMP-9 IS4 and IVS4 peptides can be used to interfere with function of endogenous MMP-9. To this end, HT1080 cells were employed and cell migratory ability was evaluated using a Transwell chamber migration assay (FIG. 11). The cells were incubated with 100 μM of IS4 peptide (SRPQGPFL) (SEQ ID NO: 2), IS4 scrambled peptide (GLSQPRFP) (SEQ ID NO: 35), IVS4 peptide (NQVDQVGY) (SEQ ID NO: 1), IVS4 scrambled peptide (VQYDNGQV) (SEQ ID NO: 51), and a combination of IS4 and IVS4 peptides for 6 h at 37° C. 1% DMSO was used as a vehicle control. Migrated cells were microscopically counted. Each data point was performed in triplicate and the experiment was repeated three times (*P<0.05). […] While not limiting the invention to any particular mechanism, it is the inventors' view that this is potentially because both inhibitory peptides target the same molecule.

MMP-9 homodimer = molecular target: T1, MMP-9 homodimer (Homo sapiens, UniProt P14780); assay: Co-immunoprecipitation assay of MMP-9 homodimer formation in transfected COS-1 cells; format: cell-based
T1 construct: The MMP-9 cDNA containing the open reading frame of MMP-9 was amplified by a PCR approach; by a site-directed mutagenesis approach using wild type MMP-9 as a template; expressed in transfected cells; host or cells: COS-1 monkey kidney epithelial cells
T1 sequence (P14780 20-707 limits assumed): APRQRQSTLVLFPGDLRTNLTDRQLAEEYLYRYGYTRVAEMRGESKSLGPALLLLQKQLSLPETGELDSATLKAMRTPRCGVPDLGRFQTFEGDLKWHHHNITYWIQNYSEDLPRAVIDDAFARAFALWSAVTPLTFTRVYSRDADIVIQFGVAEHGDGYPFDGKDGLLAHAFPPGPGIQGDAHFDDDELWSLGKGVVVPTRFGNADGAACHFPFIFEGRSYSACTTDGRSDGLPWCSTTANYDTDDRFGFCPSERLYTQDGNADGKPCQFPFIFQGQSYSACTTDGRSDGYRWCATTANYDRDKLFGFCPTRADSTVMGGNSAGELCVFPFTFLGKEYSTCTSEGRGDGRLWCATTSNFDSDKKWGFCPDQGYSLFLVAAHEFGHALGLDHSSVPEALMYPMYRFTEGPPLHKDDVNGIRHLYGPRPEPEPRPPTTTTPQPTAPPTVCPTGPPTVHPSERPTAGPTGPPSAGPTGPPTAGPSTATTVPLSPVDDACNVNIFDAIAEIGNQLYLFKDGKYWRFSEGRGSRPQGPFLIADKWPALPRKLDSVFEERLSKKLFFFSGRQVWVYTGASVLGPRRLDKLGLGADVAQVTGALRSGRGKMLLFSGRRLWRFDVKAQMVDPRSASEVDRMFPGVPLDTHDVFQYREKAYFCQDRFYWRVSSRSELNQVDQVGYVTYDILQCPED
Source text: (§1) Procedures for Gelatin Substrate Zymography, Immunoblotting, Immunoprecipitation, Transwell Chamber Cell Migration and Phagokinetic Cell Migration Assays
(§2) Basic protocols for these techniques have been described previously (Cao et al., 1996; Dufour et al., 2008).
COS-1 cells co-transfected with HA- and Myc-tagged MMP-9 cDNAs were then employed to examine homodimer formation using a co-immunoprecipitation approach. The HA-tagged MMP-9 proteins in the conditioned medium of transfected COS-1 cells were immunoprecipitated with anti-HA antibodies followed by a western blotting probed by anti-Myc antibodies. […] To further confirm this observation, the reciprocal co-immunoprecipitation was performed. Anti-Myc antibodies were employed to precipitate Myc-tagged MMP-9 complexes in the conditioned medium of co-transfected COS-1 cells followed by western blotting using anti-HA antibodies. This reciprocal approach confirms that MMP-9 does form a homodimer in the condition medium of transfected COS-1 cells.
(§3) One approach to blunt MMP-9 induced cell migration might be to target the herein discovered homodimer formation, which is a prerequisite for MMP-9-induced cell migration. Given the observation that the outermost β-strand of the fourth blade of the MMP-9 PEX domain is required for MMP-9 homodimerization formation, an 8-amino acids peptide (NQVDQVGY) (SEQ ID NO: 1) was synthesized to mimic the outer β-strand of blade IV of MMP-9 PEX domain (IVS4 peptide). As a control, a scrambled peptide with the same amino acids but rearranged in different order (VQYDNGQV) (SEQ ID NO: 51) was designed and synthesized. To test if IVS4 peptide blocked MMP-9 homodimer formation, COS-1 cells transfected with MMP-9 cDNA were treated with peptides for 30 minutes followed by a co-immunoprecipitation assay. […] To examine the potential therapeutic effect of this peptide, a transwell migration assay was performed. […] This IVS4 peptide, however, had no effect on cell migration induced by MT1-MMP, an integral membrane matrix metalloproteinase capable of stimulating cell migration (Cao et al., 2004).

[1] = system: cell migration induced by MT1-MMP; assay: Transwell migration assay, cell migration induced by MT1-MMP; format: cell-based
Source text: as §3

[2] = system: MMP-9-induced cell migration of transfected COS-1 cells; details: for MMP-9-induced cell migration: transwell chamber migration assay for 6 hours, MMP-9 transfected COS-1 cells
Protocol: (P-values reflect comparison with MMP-9 transfected cells: *P<0.05). […] COS-1 cells transfected with an empty vector or MMP-9 cDNAs were examined by a transwell chamber migration assay for 6 hours in the presence of DMSO control, specific and scramble peptides at different concentration. Each data point was performed in triplicate and the experiments was repeated three times (*P<0.05).
Transfection of plasmid DNA in COS-1 cells was achieved using polyethylenimine (Polysciences) or Transfectin™ reagents (Bio-Rad) and the transfected cells were incubated for 48 h at 37° C. followed by biochemical and biological assays.

CD44/MMP-9 heterodimer = molecular target: T2, CD44/MMP-9 heterodimer (Homo sapiens, UniProt P16070); assay: Co-immunoprecipitation assay of CD44/MMP-9 complex formation in transfected COS-1 cells; format: cell-based; details: COS-1 cells transfected with CD44 and MMP-9 cDNAs, peptides for 30 minutes
T2 construct: The MMP-9 cDNA containing the open reading frame of MMP-9 was amplified by a PCR approach; expressed in transfected cells; host or cells: COS-1 monkey kidney epithelial cells
T2 sequence (P16070 21-742, one chain of several): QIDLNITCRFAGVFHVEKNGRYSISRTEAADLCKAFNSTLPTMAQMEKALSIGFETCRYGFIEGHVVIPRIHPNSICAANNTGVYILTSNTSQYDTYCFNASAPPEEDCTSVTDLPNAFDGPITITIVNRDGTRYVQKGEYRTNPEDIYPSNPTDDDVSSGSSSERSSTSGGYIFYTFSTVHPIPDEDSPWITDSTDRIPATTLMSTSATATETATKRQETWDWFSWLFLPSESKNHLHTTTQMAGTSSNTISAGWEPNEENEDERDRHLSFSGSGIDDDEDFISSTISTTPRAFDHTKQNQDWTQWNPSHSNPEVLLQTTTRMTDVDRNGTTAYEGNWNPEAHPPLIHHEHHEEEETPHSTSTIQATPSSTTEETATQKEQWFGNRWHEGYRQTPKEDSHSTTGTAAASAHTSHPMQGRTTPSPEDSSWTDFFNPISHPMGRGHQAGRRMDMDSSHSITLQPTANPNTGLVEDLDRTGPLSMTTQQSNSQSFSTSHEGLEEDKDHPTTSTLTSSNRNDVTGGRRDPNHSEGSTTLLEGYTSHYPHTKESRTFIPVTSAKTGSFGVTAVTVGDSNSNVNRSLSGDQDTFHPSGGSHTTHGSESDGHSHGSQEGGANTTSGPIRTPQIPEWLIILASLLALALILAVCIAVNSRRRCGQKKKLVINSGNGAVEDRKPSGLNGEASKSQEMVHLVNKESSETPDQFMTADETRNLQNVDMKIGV
Source text: as §1, §2
To further examine the importance of cross-talk between CD44 and MMP-9 in cell migration, an 8-amino acids peptide (SRPQGPFL) (SEQ ID NO: 2) was synthesized to mimic the outermost β-strand of the first blade of the MMP-9 PEX domain (IS4 peptide). As a control, a scrambled peptide with the same amino acids but rearranged in different order (GLSQPRFP) (SEQ ID NO: 35) was synthesized. COS-1 cells transfected with CD44 and MMP-9 cDNAs were treated with IS4 and IS4 scrambled peptides for 30 minutes followed by monitoring complex formations between CD44 and MMP-9 using a co-immunoprecipitation assay.

[3] = system: MMP9/PEXMMP-2/Myc transfected COS-1 cells; assay: Transwell migration assay, COS-1 cells transfected with MMP9/PEXMMP-2/Myc; format: cell-based, monkey; details: co-expression of TIMP
Source text: FIG. 3. TIMP-1 interferes with MMP-9 homodimerization. (A) TIMP-1, but not TIMP-2 interferes with MMP-9 dimerization in transfected COS-1 cells examined by a co-immunoprecipitation assay for conditioned medium and cell lysates (upper and middle panels), and immunoblotting for α/β tubulin (lower panel, loading control). (B) TIMP-1 co-precipitated with MMP-9 in both the lysate and the conditioned medium of transfected COS-1 cells examined by a co-immunoprecipitation assay. (C) MMP-9 chimera substituting the PEX domain with the corresponding MMP-2 interacts with TIMP-2 in transfected COS-1 cells, but not wild type MMP-9. (D) COS-1 cells transfected with corresponding cDNAs were subjected to a transwell migration assay. Three triplicated repeats were performed for each transfection. *P<0.05.
The role of TIMP-1 in interfering with MMP-9 homodimer formation remains controversial (Goldberg et al., 1992; Olson et al., 2000). This discrepancy led us to reevaluate the specific interference of TIMP-1 on proMMP-9 homodimer formation using the biochemical approach described above. […]

- MMP-9 homodimer formation (MMP-9 homodimer; COS-1 cells transfected with MMP-9 cDNA, treated with peptides for 30 minutes, co-immunoprecipitation): efficiently blocked
- MMP-9 homodimer formation (MMP-9 homodimer; COS-1 cells transfected with MMP-9 cDNA, treated with peptides for 30 minutes, co-immunoprecipitation, listed as IVS4): abrogates
Substance: NQVDQVGY [IVS4 peptide, NQVDQVGY]
- HT1080 cell migration (HT1080 cells): significantly reduced; also recorded: efficiently reduced
- cell migration induced by MT1-MMP [1]: no effect
- IC50 [2]: 50 µM
- MMP-9-induced cell migration [2]: inhibited MMP-9-induced cell migration in a dose-dependent manner
- MMP-9-induced cell migration ([2]; listed as IVS4): efficiently reduced
- MMP-9-induced cell migration ([2]; listed as IVS4 peptides): Dose dependent inhibition

- CD44/MMP-9 heterodimer formation (CD44/MMP-9 heterodimer): minimal effect
Substance: GLSQPRFP [IS4 scrambled peptide, control scrambled peptide with the same amino acids as IS4 rearranged in different order, reference compound]

- MMP-9 homodimer formation (MMP-9 homodimer; co-expression of TIMP cDNA with proMMP-9/Myc and proMMP-9/HA cDNAs in COS-1 cells, conditioned media and cell lysate): interferes; also recorded: blocking
Substance: TIMP-1: tissue inhibitor of metalloproteinases, co-expressed from cDNA in COS-1 cells
- MMP9/PEXMMP-2/Myc enhancement of COS-1 cell migration [3]: no apparent effect; also recorded: did not significantly inhibit

- CD44/MMP-9 heterodimer formation (CD44/MMP-9 heterodimer): interferes
Substance: SRPQGPFL [IS4 peptide, SRPQGPFL]
- HT1080 cell migration (HT1080 cells; listed as IS4): significantly reduced; also recorded: efficiently reduced
- IC50 [2]: 12 µM
- MMP-9-induced cell migration [2]: dose-dependent inhibition
- MMP-9-induced cell migration ([2]; listed as IS4): efficiently reduced
- MMP-9-induced cell migration ([2]; listed as IS4 peptides): Dose-dependent inhibition
